Measured values: patent US7396837B2, “Antitumoral analogs of lamellarins” (Pharma Mar, S.A.U., priority 2002, dated 2008)
Where two headings read alike, the source gives them in different places.

Experiments:
Type in all cases: cell-based
[1] = tested on: HT-29; experiment: SRB colorimetric cell growth inhibition assay, HT-29; conditions: Homo sapiens; for CC50: cell killing (cytotoxic effect), read-out: LC50 HT-29; for GI50: GI=growth inhibition, read-out: GI50 HT-29; for IC (TGI): total growth inhibition (cytostatic effect), read-out: TGI HT-29
Description: (§1) The finality of these assays is to interrupt the growth of an “in vitro” tumor cell culture by means a continued exhibition of the cells to the sample to be testing.
(§2) A colorimetric type of assay, using sulforhodamine B (SRB) reaction has been adapted for a quantitative measurement of cell growth and viability (following the technique described by P. A. Skehan, et al., J. Natl. Cancer Inst. 1990, 82, 1107-1112).
(§3) This form of assay employs 96 well cell culture microplates of 9 mm diameter (T. Mosmann et al., J. of Immunological Methods 1983, 65, 55-63; G. T. Faircloth et al., J. of Tissue and Culture Methods 1988, 11, 201-205).
(§4) Most of the cell lines are obtained from American Type Culture Collection (ATCC) derived from different human cancer types.
(§5) The values for mean +/− SD of data from triplicate wells are calculated. Some parameters for cellular responses can be calculated: GI=growth inhibition, TGI=total growth inhibition (cytostatic effect) and LC=cell killing (cytotoxic effect).

[2] = tested on: LoVo; experiment: SRB colorimetric cell growth inhibition assay, LoVo; conditions: Homo sapiens; for CC50: cell killing (cytotoxic effect), read-out: LC50 LOVO; for GI50: GI=growth inhibition, read-out: GI50 LOVO; for IC (TGI): total growth inhibition (cytostatic effect), read-out: TGI LOVO
Description: as §1, §2, §3, §4, §5

[3] = tested on: DU-145; experiment: SRB colorimetric cell growth inhibition assay, DU-145; conditions: Homo sapiens; for CC50: cell killing (cytotoxic effect), read-out: LC50 DU-145; for GI50: GI=growth inhibition, read-out: GI50 DU-145; for IC (TGI): total growth inhibition (cytostatic effect), read-out: TGI DU-145
Description: as §1, §2, §3, §4, §5

[4] = tested on: SK-BR-3; experiment: SRB colorimetric cell growth inhibition assay, SK-BR-3; conditions: Homo sapiens; for CC50: cell killing (cytotoxic effect), read-out: LC50 SK-BR-3; for GI50: GI=growth inhibition, read-out: GI50 SK-BR-3; for IC (TGI): total growth inhibition (cytostatic effect), read-out: TGI SK-BR-3
Description: as §1, §2, §3, §4, §5

[5] = tested on: PANC-1; experiment: SRB colorimetric cell growth inhibition assay, PANC-1; conditions: Homo sapiens; for CC50: cell killing (cytotoxic effect), read-out: LC50 PANC-1; for IC (TGI): total growth inhibition (cytostatic effect), read-out: TGI PANC-1; for GI50: GI=growth inhibition, read-out: GI50 PANC-1
Description: as §1, §2, §3, §4, §5

[6] = tested on: IGROV-ET; experiment: SRB colorimetric cell growth inhibition assay, IGROV-ET (ET-743 resistant); conditions: Homo sapiens, IGROV-ET; for GI50: GI=growth inhibition, read-out: GI50 IGROV-ET; for CC50: cell killing (cytotoxic effect), read-out: LC50 IGROV-ET; for IC (TGI): total growth inhibition (cytostatic effect), read-out: TGI IGROV-ET
Description: as §1, §2, §3, §4, §5

[7] = tested on: LNCaP; experiment: SRB colorimetric cell growth inhibition assay, LNCaP; conditions: Homo sapiens, LNCaP, LN-caP
Description: as §1, §2, §3, §4, §5

[8] = tested on: HeLa-APL; experiment: SRB colorimetric cell growth inhibition assay, HeLa-APL (aplidine resistant); conditions: Homo sapiens; for GI50: read-out: GI50 HELA-APL; for CC50: read-out: LC50 HELA-APL; for IC (TGI): read-out: TGI HELA-APL
Description: as §1, §2, §3, §4, §5

[9] = tested on: LoVo-Dox; experiment: SRB colorimetric cell growth inhibition assay, LoVo-Dox (MDR); conditions: Homo sapiens, LOVO-DOX; for GI50: GI=growth inhibition, read-out: GI50 LOVO-DOX; for CC50: cell killing (cytotoxic effect), read-out: LC50 LOVO-DOX; for IC (TGI): total growth inhibition (cytostatic effect), read-out: TGI LOVO-DOX
Description: as §1, §2, §3, §4, §5

[10] = tested on: SK-MEL-28; experiment: SRB colorimetric cell growth inhibition assay, SK-MEL-28; conditions: Homo sapiens, SK-MEL-28, MEL-28
Description: as §1, §2, §3, §4, §5

[11] = tested on: IGROV; experiment: SRB colorimetric cell growth inhibition assay, IGROV
Description: as §1, §2, §3, §4, §5

[12] = tested on: A-549; experiment: SRB colorimetric cell growth inhibition assay, A-549; conditions: Homo sapiens, A549, A-549; for GI50: GI=growth inhibition, read-out: GI50 A-549; for CC50: cell killing (cytotoxic effect), read-out: LC50 A-549; for IC (TGI): total growth inhibition (cytostatic effect), read-out: TGI A-549
Description: as §1, §2, §3, §4, §5

[13] = tested on: HeLa; experiment: SRB colorimetric cell growth inhibition assay, HeLa; conditions: Homo sapiens, HeLa; for GI50: read-out: GI50 HELA; for CC50: read-out: LC50 HELA; for IC (TGI): read-out: TGI HELA
Description: as §1, §2, §3, §4, §5

[14] = tested on: K-562; experiment: SRB colorimetric cell growth inhibition assay, K-562; conditions: Homo sapiens, K562, K-562
Description: as §1, §2, §3, §4, §5

[15] = Homo sapiens, IGROV; cell killing (cytotoxic effect); read-out: LC50 IGROV

**Q.** How did the CC50 ([1]; HT-29, HT-29) turn out when `CC[C@H](C)[C@H](NC(=O)OC(C)(C)C)C(=O)Oc1ccc(-c2c3c4cc(OC)c(OC(=O)[C@@H](NC(=O)OC(C)(C)C)[C@@H](C)CC)cc4oc(=O)c3n3ccc4cc(OC(=O)[C@@H](NC(=O)OC(C)(C)C)[C@@H](C)CC)c(OC)cc4c23)cc1OC` [Compound 208] was run?
**A.** Its CC50 is 8.78 µM.

**Q.** And the GI50 ([1]; HT-29)?
**A.** Its GI50 is 8.78 µM.

**Q.** What about the IC (TGI) ([1]; HT-29) of the same compound?
**A.** Its IC (TGI) is 8.78 µM.

**Q.** What about the CC50 ([2]; LoVo) of the same compound?
**A.** The CC50 was 8.78 µM.

**Q.** What about the GI50 ([2]; LOVO) of the same compound?
**A.** The GI50 was 8.78 µM.

**Q.** What about the IC (TGI) ([2]; LOVO) of the same compound?
**A.** The IC (TGI) was 8.78 µM.

**Q.** What about the CC50 ([3]; DU-145, DU-145) of the same compound?
**A.** The CC50 was 8.78 µM.

**Q.** And the GI50 ([3]; DU-145)?
**A.** Its GI50 is 8.78 µM.

**Q.** What about the IC (TGI) ([3]; DU-145) of the same compound?
**A.** Its IC (TGI) is 8.78 µM.

**Q.** What about the CC50 ([4]; SK-BR-3, SK-BR-3) of the same compound?
**A.** The CC50 was 8.78 µM.

**Q.** What about the GI50 ([4]; SK-BR-3) of the same compound?
**A.** The GI50 was 5.01 µM.

**Q.** What about the IC (TGI) ([4]; SK-BR-3) of the same compound?
**A.** The IC (TGI) was 7.97 µM.

**Q.** And the CC50 ([5]; PANC-1, PANC-1)?
**A.** The CC50 was 8.78 µM.

**Q.** And the IC (TGI) ([5]; PANC-1, PANC-1)?
**A.** Its IC (TGI) is 8.78 µM.

**Q.** What about the GI50 ([5]; PANC-1) of the same compound?
**A.** Its GI50 is 5.92 µM.

**Q.** What about the GI50 [6] of the same compound?
**A.** The GI50 was 8.78 µM.

**Q.** And the CC50 [6]?
**A.** Its CC50 is 8.78 µM.

**Q.** What about the IC (TGI) [6] of the same compound?
**A.** Its IC (TGI) is 8.78 µM.

**Q.** And the GI50 ([7]; GI=growth inhibition, read-out: GI50 LN-caP)?
**A.** Its GI50 is 1.46 µM.

**Q.** And the CC50 ([7]; cell killing (cytotoxic effect), read-out: LC50 LN-caP)?
**A.** The CC50 was 5.83 µM.

**Q.** What about the IC (TGI) ([7]; total growth inhibition (cytostatic effect), read-out: TGI LN-caP) of the same compound?
**A.** The IC (TGI) was 2.91 µM.

**Q.** And the GI50 [8]?
**A.** Its GI50 is 0.154 µM.

**Q.** What about the CC50 [8] of the same compound?
**A.** Its CC50 is 1.14 µM.

**Q.** What about the IC (TGI) [8] of the same compound?
**A.** The IC (TGI) was 0.385 µM.

**Q.** What about the GI50 [9] of the same compound?
**A.** Its GI50 is 8.78 µM.

**Q.** And the CC50 [9]?
**A.** Its CC50 is 8.78 µM.

**Q.** And the IC (TGI) [9]?
**A.** The IC (TGI) was 8.78 µM.

**Q.** And the GI50 ([10]; GI=growth inhibition, read-out: GI50 MEL-28)?
**A.** Its GI50 is 8.78 µM.

**Q.** And the CC50 ([10]; cell killing (cytotoxic effect), read-out: LC50 MEL-28)?
**A.** Its CC50 is 8.78 µM.

**Q.** And the IC (TGI) ([10]; total growth inhibition (cytostatic effect), read-out: TGI MEL-28)?
**A.** Its IC (TGI) is 8.78 µM.

**Q.** What about the CC50 [11, 15] of the same compound?
**A.** Its CC50 is 8.78 µM.

**Q.** And the GI50 ([11]; Homo sapiens; IGROV; GI=growth inhibition; read-out: GI50 IGROV)?
**A.** Its GI50 is 8.78 µM.

**Q.** And the IC (TGI) ([11]; Homo sapiens; IGROV; total growth inhibition (cytostatic effect); read-out: TGI IGROV)?
**A.** The IC (TGI) was 8.78 µM.

**Q.** And the GI50 [12]?
**A.** The GI50 was 8.78 µM.

**Q.** What about the CC50 [12] of the same compound?
**A.** Its CC50 is 8.78 µM.

**Q.** What about the IC (TGI) [12] of the same compound?
**A.** The IC (TGI) was 8.78 µM.

**Q.** What about the GI50 [13] of the same compound?
**A.** The GI50 was 0.208 µM.

**Q.** And the CC50 [13]?
**A.** The CC50 was 2.31 µM.

**Q.** And the IC (TGI) [13]?
**A.** The IC (TGI) was 0.618 µM.

**Q.** Which results are given for `C=CCOC(=O)N[C@@H](C)C(=O)Oc1ccc(-c2c3c4cc(OC)c(OC(=O)[C@H](C)NC(=O)OCC=C)cc4oc(=O)c3n3ccc4cc(OC(=O)[C@H](C)NC(=O)OCC=C)c(OC)cc4c23)cc1OC` [Compound 210]?
**A.** GI50 ([1]; HT-29, HT-29): 7.09 µM; CC50 ([1]; HT-29, HT-29): 10.4 µM; IC (TGI) ([1]; HT-29, HT-29): 10.4 µM; GI50 ([2]; LoVo): 2.05 µM; CC50 ([2]; LoVo): 7.76 µM; IC (TGI) ([2]; LoVo): 3.99 µM; GI50 ([3]; DU-145, DU-145): 0.181 µM; CC50 ([3]; DU-145, DU-145): 0.631 µM; IC (TGI) ([3]; DU-145, DU-145): 0.339 µM; GI50 ([4]; SK-BR-3, SK-BR-3): 0.397 µM; CC50 ([4]; SK-BR-3, SK-BR-3): 4.59 µM; IC (TGI) ([4]; SK-BR-3, SK-BR-3): 1.36 µM; GI50 ([5]; PANC-1, PANC-1): 0.398 µM; CC50 ([5]; PANC-1, PANC-1): 4.87 µM; IC (TGI) ([5]; PANC-1, PANC-1): 1.51 µM; GI50 [6]: 0.145 µM; CC50 [6]: 0.92 µM; IC (TGI) [6]: 0.366 µM; GI50 ([8]; HELA-APL, GI=growth inhibition): 0.516 µM; CC50 ([8]; HELA-APL, cell killing (cytotoxic effect)): 10.4 µM; IC (TGI) ([8]; HELA-APL, total growth inhibition (cytostatic effect)): 3.08 µM; GI50 [9]: 2.43 µM; CC50 [9]: 10.4 µM; IC (TGI) [9]: 6.04 µM; GI50 ([11]; Homo sapiens, IGROV; GI=growth inhibition; read-out: GI50 IGROV): 0.317 µM; CC50 [11, 15]: 3.65 µM; IC (TGI) ([11]; Homo sapiens, IGROV; total growth inhibition (cytostatic effect); read-out: TGI IGROV): 1.06 µM; GI50 ([14]; GI=growth inhibition, read-out: GI50 K-562): 0.612 µM; CC50 ([14]; cell killing (cytotoxic effect), read-out: LC50 K-562): 6.17 µM; IC (TGI) ([14]; total growth inhibition (cytostatic effect), read-out: TGI K-562): 2.13 µM; GI50 [12]: 0.477 µM; CC50 [12]: 10.4 µM; IC (TGI) [12]: 3.94 µM; GI50 ([13]; GI=growth inhibition): 0.611 µM; CC50 ([13]; cell killing (cytotoxic effect)): 10.4 µM; IC (TGI) ([13]; total growth inhibition (cytostatic effect)): 5.54 µM
